What was measured:
PANC-1 = test: Inhibition of cells growth by colorimetric (SRB) assay, PANC-1; conditions: for GI50 / CC50: Homo sapiens, PANC-1, 48 h; for GI50: read-out: GI50 PANC-1, SRB assay, 48 hours exposure; for CC50: read-out: LC50 PANC-1, SRB assay, 48 hours exposure; for TGI PANC-1: SRB assay, 48 hours exposure
Procedure, shortened: (§1)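 Human tumour cells in RPMI 1640 with 10% FBS were seeded at 5×10^3 cells/well, allowed to attach for 18 h, then exposed to samples at 10 to 10^−8 μg/ml for 48 h. Growth was measured by SRB staining after TCA fixation, with absorbance read at 490 nm in triplicate wells.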

DU-145 = test: Inhibition of cells growth by colorimetric (SRB) assay, DU-145; conditions: for GI50 / CC50: Homo sapiens, DU-145, 48 h; for GI50: read-out: GI50 DU-145, SRB assay, 48 hours exposure; for CC50: read-out: LC50 DU-145, SRB assay, 48 hours exposure; for TGI DU-145: SRB assay, 48 hours exposure
Procedure, shortened: as §1

LNCaP = test: Inhibition of cells growth by colorimetric (SRB) assay, LNCaP; conditions: for GI50 / CC50: Homo sapiens, LNCaP, 48 h; for GI50: read-out: GI50 LN-caP, SRB assay, 48 hours exposure; for CC50: read-out: LC50 LN-caP, SRB assay, 48 hours exposure; for TGI LN-caP: SRB assay, 48 hours exposure
Procedure, shortened: as §1

K-562 = test: Inhibition of cells growth by colorimetric (SRB) assay, K-562; conditions: for GI50 / CC50: Homo sapiens, K562, 48 h; for GI50: read-out: GI50 K-562, SRB assay, 48 hours exposure; for CC50: read-out: LC50 K-562, SRB assay, 48 hours exposure; for TGI K-562: SRB assay, 48 hours exposure
Procedure, shortened: as §1

[1] = Inhibition of cells growth by colorimetric (SRB) assay, HMEC1; conditions: human, HMEC1 cells, LC50 H-MEC-1, SRB assay, 48 hours exposure
HMEC1 = test: as above; conditions: for GI50: Homo sapiens, HMEC-1, 48 h, read-out: GI50 H-MEC-1, SRB assay, 48 hours exposure; for TGI H-MEC-1: SRB assay, 48 hours exposure, in M (unit assumed)
IGROV-1 = test: Inhibition of cells growth by colorimetric (SRB) assay, IGROV-1; conditions: for GI50 / CC50: Homo sapiens, IGROV-1, 48 h; for GI50: read-out: GI50 IGROV, SRB assay, 48 hours exposure; for CC50: read-out: LC50 IGROV, SRB assay, 48 hours exposure; for TGI IGROV: SRB assay, 48 hours exposure
Procedure, shortened: as §1

SK-OV-3 = test: Inhibition of cells growth by colorimetric (SRB) assay, SK-OV-3; conditions: for GI50 / CC50: Homo sapiens, SK-OV-3, 48 h; for GI50: read-out: GI50 SKOV-3, SRB assay, 48 hours exposure; for CC50: read-out: LC50 SKOV-3, SRB assay, 48 hours exposure; for TGI SKOV-3: SRB assay, 48 hours exposure
Procedure, shortened: as §1

SK-MEL-28 = test: Inhibition of cells growth by colorimetric (SRB) assay, SK-MEL-28; conditions: for GI50 / CC50: Homo sapiens, SK-MEL-28, 48 h; for GI50: read-out: GI50 MEL-28, SRB assay, 48 hours exposure; for CC50: read-out: LC50 MEL-28, SRB assay, 48 hours exposure; for TGI MEL-28: SRB assay, 48 hours exposure
Procedure, shortened: as §1

A-549 = test: Inhibition of cells growth by colorimetric (SRB) assay, A-549; conditions: for GI50 / CC50: Homo sapiens, A549, 48 h; for GI50: read-out: GI50 A-549, SRB assay, 48 hours exposure; for CC50: read-out: LC50 A-549, SRB assay, 48 hours exposure; for TGI A-549: SRB assay, 48 hours exposure
Procedure, shortened: as §1

IGROV-ET = test: Inhibition of cells growth by colorimetric (SRB) assay, IGROV-ET; conditions: for GI50 / CC50: Homo sapiens, 48 h; for GI50: read-out: GI50 IGROV-ET, SRB assay, 48 hours exposure; for CC50: read-out: LC50 IGROV-ET, SRB assay, 48 hours exposure; for TGI IGROV-ET: SRB assay, 48 hours exposure
Procedure, shortened: as §1

SK-BR-3 = test: Inhibition of cells growth by colorimetric (SRB) assay, SK-BR-3; conditions: for GI50 / CC50: Homo sapiens, SK-BR-3, 48 h; for GI50: read-out: GI50 SK-BR-3, SRB assay, 48 hours exposure; for CC50: read-out: LC50 SK-BR-3, SRB assay, 48 hours exposure; for TGI SK-BR-3: SRB assay, 48 hours exposure
Procedure, shortened: as §1

HT-29 = test: Inhibition of cells growth by colorimetric (SRB) assay, HT-29; conditions: for GI50 / CC50: Homo sapiens, HT-29, 48 h; for GI50: read-out: GI50 HT-29, SRB assay, 48 hours exposure; for CC50: read-out: LC50 HT-29, SRB assay, 48 hours exposure; for TGI HT-29: SRB assay, 48 hours exposure
Procedure, shortened: as §1

LoVo = test: Inhibition of cells growth by colorimetric (SRB) assay, LoVo; conditions: for GI50 / CC50: Homo sapiens, LoVo, 48 h; for GI50: read-out: GI50 LOVO, SRB assay, 48 hours exposure; for CC50: read-out: LC50 LOVO, SRB assay, 48 hours exposure; for TGI LOVO: SRB assay, 48 hours exposure
Procedure, shortened: as §1

LoVo-Dox = test: Inhibition of cells growth by colorimetric (SRB) assay, LoVo-Dox; conditions: for GI50 / CC50: Homo sapiens, 48 h; for GI50: read-out: GI50 LOVO-DOX, SRB assay, 48 hours exposure; for CC50: read-out: LC50 LOVO-DOX, SRB assay, 48 hours exposure; for TGI LOVO-DOX: SRB assay, 48 hours exposure
Procedure, shortened: as §1

Row | Compound | GI50 (PANC-1) | GI50 (DU-145) | CC50 (DU-145) | TGI DU-145 (DU-145) | GI50 (LNCaP) | CC50 (LNCaP) | TGI LN-caP (LNCaP) | GI50 (K-562) | CC50 (K-562) | TGI K-562 (K-562) | CC50 at 48 h [1] | GI50 (HMEC1) | TGI H-MEC-1 (HMEC1) | GI50 (IGROV-1) | CC50 (IGROV-1) | TGI IGROV (IGROV-1) | GI50 (SK-MEL-28) | CC50 (SK-MEL-28) | TGI MEL-28 (SK-MEL-28) | GI50 (A-549) | also measured
1 | COc1ccc(CNc2ccnc3c2c(-c2ccnc([S+](C)[O-])n2)c2ccnc(NCc4ccc(OC)cc4)n23)cc1 (centres unmarked) [Compound 86] | ≥ 17.3 µM | ≥ 17.3 µM | ≥ 17.3 µM | 1.73E−05 | ≥ 17.3 µM | ≥ 17.3 µM | 1.73E−05 | ≥ 17.3 µM | ≥ 17.3 µM | 1.73E−05 | ≥ 17.3 µM | 7.99 µM | 1.73E−05 | ≥ 17.3 µM | ≥ 17.3 µM | 1.73E−05 | ≥ 17.3 µM | ≥ 17.3 µM | 1.73E−05 | ≥ 17.3 µM | GI50 (SK-OV-3): ≥ 17.3 µM; CC50 (SK-OV-3): ≥ 17.3 µM; TGI SKOV-3 (SK-OV-3): 1.73E−05; CC50 (A-549): ≥ 17.3 µM; TGI A-549 (A-549): 1.73E−05; GI50 (IGROV-ET): ≥ 17.3 µM; CC50 (IGROV-ET): ≥ 17.3 µM; TGI IGROV-ET (IGROV-ET): 1.73E−05; GI50 (SK-BR-3): ≥ 17.3 µM; CC50 (SK-BR-3): ≥ 17.3 µM; TGI SK-BR-3 (SK-BR-3): 1.73E−05
2 | COc1ccc(CNc2ccnc3c2c(-c2ccnc(OC)n2)c2ccnc(NCc4ccc(OC)cc4)n23)cc1 [Compound 87] | 17.3 µM | 18.3 µM | 17.3 µM | 1.73E−05 | 17.3 µM | 17.3 µM | 1.73E−05 | 17.3 µM | 17.3 µM | 1.73E−05 | 17.3 µM | 7.3 µM | 1.73E−05 | 17.3 µM | 17.3 µM | 1.73E−05 | 17.3 µM | 17.3 µM | 1.73E−05 | 17.3 µM | GI50 (SK-OV-3): 17.3 µM; CC50 (SK-OV-3): 17.3 µM; TGI SKOV-3 (SK-OV-3): 1.73E−05; CC50 (A-549): 17.3 µM; TGI A-549 (A-549): 1.73E−05; GI50 (IGROV-ET): 17.3 µM; CC50 (IGROV-ET): 17.3 µM; TGI IGROV-ET (IGROV-ET): 1.73E−05; GI50 (SK-BR-3): 17.3 µM; CC50 (SK-BR-3): 17.3 µM; TGI SK-BR-3 (SK-BR-3): 1.73E−05
3 | COc1nccc(-c2c3c(N)ccnc3n3c(N)nccc23)n1 [Compound 88] | 5.85 µM | 0.902 µM | 18.7 µM | 1.87E−05 | 0.415 µM | 1.59 µM | 8.13E−07 | 6.09 µM | 18.7 µM | 1.87E−05 | 18.7 µM | 0.99 µM | 9.71E−06 | 3.23 µM | 18.7 µM | 9.58E−06 | 1.43 µM | 11.2 µM | 4.17E−06 | 1.03 µM | CC50 (PANC-1): 18.7 µM; TGI PANC-1 (PANC-1): 1.87E−05; GI50 (HT-29): 1.03 µM; CC50 (HT-29): 18.7 µM; TGI HT-29 (HT-29): 1.87E−05; GI50 (LoVo): 1.34 µM; CC50 (LoVo): 12.9 µM; TGI LOVO (LoVo): 4.37E−06; GI50 (LoVo-Dox): 1.06 µM; CC50 (LoVo-Dox): 15.1 µM; TGI LOVO-DOX (LoVo-Dox): 3.87E−06; CC50 (A-549): 18.7 µM; TGI A-549 (A-549): 6.95E−06; GI50 (IGROV-ET): 1.4 µM; CC50 (IGROV-ET): 18.7 µM; TGI IGROV-ET (IGROV-ET): 6.74E−06; GI50 (SK-BR-3): 0.562 µM; CC50 (SK-BR-3): 18.7 µM; TGI SK-BR-3 (SK-BR-3): 1.36E−06
4 | Nc1nccc(-c2c3c(F)ccnc3n3c(N)nccc23)n1 [Compound 115] | 2.05 µM | 0.759 µM | 10.7 µM | 1.79E−06 | 0.721 µM | 2.34 µM | 1.30E−06 | 4.47 µM | 28.9 µM | 1.13E−05 | 5.96 µM | 0.599 µM | 1.56E−06 | 1.23 µM | ≥ 33.9 µM | 5.22E−06 | 1.12 µM | 12.1 µM | 4.13E−06 | 0.748 µM | CC50 (PANC-1): ≥ 33.9 µM; TGI PANC-1 (PANC-1): 9.35E−06; GI50 (HT-29): 2.15 µM; CC50 (HT-29): ≥ 33.9 µM; TGI HT-29 (HT-29): 1.31E−05; GI50 (LoVo): 0.894 µM; CC50 (LoVo): ≥ 33.9 µM; TGI LOVO (LoVo): 1.91E−06; GI50 (LoVo-Dox): 1.39 µM; CC50 (LoVo-Dox): ≥ 33.9 µM; TGI LOVO-DOX (LoVo-Dox): 5.76E−06; CC50 (A-549): ≥ 33.9 µM; TGI A-549 (A-549): 1.97E−06; GI50 (IGROV-ET): 1.47 µM; CC50 (IGROV-ET): ≥ 33.9 µM; TGI IGROV-ET (IGROV-ET): 6.84E−06; GI50 (SK-BR-3): 0.752 µM; CC50 (SK-BR-3): 6.23 µM; TGI SK-BR-3 (SK-BR-3): 1.69E−06
